From the supplement of paper PMC10307832

How the values were obtained:
Test in all cases: relative viability (nuclei count vs DMSO), 5 days (fraction); higher = more cells survive
Dasatinib + Palbociclib = compound: Cc1nc(Nc2ncc(C(=O)Nc3c(C)cccc3Cl)s2)cc(N2CCN(CCO)CC2)n1 [Dasatinib] + CC(=O)c1c(C)c2cnc(Nc3ccc(N4CCNCC4)cn3)nc2n(C2CCCC2)c1=O [Palbociclib] (partner 0.5 µM)
In short: (§1)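 Medians of duplicate plates are given as relative viability. That measure is the nuclei count in treated wells divided by the count in vehicle wells. Counts were taken on 4× images of lung cancer cell lines in 1536-well plates, 5 days after pin-tool dosing the day after seeding with one drug alone or a fixed anchor-drug dose plus five library-drug doses (not always all listed) in √10 steps.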

Dasatinib + Decitabine = compound: Cc1nc(Nc2ncc(C(=O)Nc3c(C)cccc3Cl)s2)cc(N2CCN(CCO)CC2)n1 [Dasatinib] + Nc1ncn([C@H]2C[C@H](O)[C@@H](CO)O2)c(=O)n1 [Decitabine] (partner 2 µM)
In short: as §1

XMD13-2 + Crizotinib = compound: C1CC1C(=O)NC2=NNC3=C2C=CC(=C3)C4=CC(=CC=C4)C(=O)NC5CC5 [XMD13-2] + C[C@@H](Oc1cc(-c2cnn(C3CCNCC3)c2)cnc1N)c1c(Cl)ccc(F)c1Cl [Crizotinib] (partner 1 µM)
In short: as §1

Dasatinib + Bortezomib = compound: Cc1nc(Nc2ncc(C(=O)Nc3c(C)cccc3Cl)s2)cc(N2CCN(CCO)CC2)n1 [Dasatinib] + CC(C)C[C@H](NC(=O)[C@H](Cc1ccccc1)NC(=O)c1cnccn1)B(O)O [Bortezomib] (partner 0.002 µM)
In short: as §1

Cell Line	relative viability (Dasatinib + Palbociclib; first compound 0.005 µM)	relative viability (Dasatinib + Palbociclib; first compound 0.01581 µM)	relative viability (Dasatinib + Palbociclib; first compound 0.05 µM)	relative viability (Dasatinib + Palbociclib; first compound 0.1581 µM)	relative viability (Dasatinib + Palbociclib; first compound 0.5 µM)	relative viability (Dasatinib + Decitabine; first compound 0.005 µM)	relative viability (Dasatinib + Decitabine; first compound 0.01581 µM)	relative viability (Dasatinib + Decitabine; first compound 0.05 µM)	relative viability (Dasatinib + Decitabine; first compound 0.1581 µM)	relative viability (Dasatinib + Decitabine; first compound 0.5 µM)	relative viability (XMD13-2 + Crizotinib; first compound 0.05 µM)	relative viability (XMD13-2 + Crizotinib; first compound 0.1581 µM)	relative viability (XMD13-2 + Crizotinib; first compound 0.5 µM)	relative viability (XMD13-2 + Crizotinib; first compound 1.581 µM)	relative viability (XMD13-2 + Crizotinib; first compound 5 µM)	relative viability (Dasatinib + Bortezomib; first compound 0.005 µM)	relative viability (Dasatinib + Bortezomib; first compound 0.01581 µM)	relative viability (Dasatinib + Bortezomib; first compound 0.05 µM)	relative viability (Dasatinib + Bortezomib; first compound 0.1581 µM)	relative viability (Dasatinib + Bortezomib; first compound 0.5 µM)
NCI-H727	0.553	0.455	0.523	0.388	0.281	0.818	0.7	0.742	0.718	0.295	0.938	0.697	1	0.771	0.687	0.606	0.663	0.554	0.463	0.258
NCI-H358	0.144	0.129	0.101	0.0794	0.0791	0.211	0.173	0.169	0.127	0.146	0.77	0.546	0.736	0.423	0.324					
NCI-H1437	0.353	0.331	0.335	0.302	0.277	0.599	0.576	0.642	0.499	0.49	0.874	1.02	0.902	0.886	1.07	0.509	0.363	0.469	0.487	0.138
NCI-H441	0.265	0.191	0.2	0.14	0.115	0.276	0.232	0.272	0.202	0.19	0.842	0.715	0.875	0.656	0.578	0.487	0.613	0.511	0.734	0.172
EMC-BAC-2	0.507	0.424	0.417	0.319	0.243	0.982	0.946	0.824	0.758	0.712	0.818	0.79	0.795	0.745	0.36	1.06	0.876	0.734	0.634	0.367
NCI-H647	0.314	0.22	0.162	0.0968	0.0812	0.379	0.311	0.315	0.173	0.182	1.25	0.903	1.12	1.03	0.548	0.547	0.593	0.447	0.257	0.189
CAL-12T	0.418	0.414	0.402	0.191	0.144						0.76	0.816	0.572	0.538	0.874	0.992	1.06	0.875	0.354	0.207
NCI-H1792	0.685	0.639	0.566	0.429	0.271	0.544	0.51	0.469	0.342	0.178	1.22	0.929	0.979	0.869	1.12	0.932	0.897	0.898	0.681	0.505
H3255	0.312	0.333	0.329	0.317	0.274	0.66	0.573	0.568	0.493	0.311	0.972	0.694	0.699	0.884	0.784	0.795	0.749	0.623	0.504	0.299
HCC-78	0.459	0.429	0.443	0.382	0.239	0.615	0.608	0.599	0.429	0.326	0.373	0.356	0.34	0.35	0.309	0.419	0.381	0.463	0.385	0.225
EBC-1											0.225	0.208	0.204	0.178	0.199	0.583	0.459	0.486	0.49	0.436
NCI-H2405	0.498	0.374	0.3	0.219	0.186	0.693	0.489	0.45	0.293	0.219	0.932	0.84	0.971	0.846	0.837	0.879	0.956	0.616	0.475	0.306
A549						0.222	0.236	0.307	0.173	0.178	0.994	0.736	0.721	0.664	0.824					
NCI-H3122	0.201	0.214	0.207	0.239	0.131	0.503	0.476	0.536	0.428	0.33	0.308	0.289	0.267	0.251	0.249	0.988	0.94	1.02	1.05	0.815
NCI-H1563											0.91	0.898	0.77	0.852	1.02	0.703	0.607	0.632	0.647	0.562
HCC-44	1.07	0.878	1.06	1.14	1.29	1.04	0.915	1.04	0.886	0.624	0.789	0.814	0.75	0.772	0.755	0.857	0.857	0.993	0.894	0.45
PC-3 [JPC-3]	0.593	0.534	0.607	0.568	0.465	0.799	0.802	0.81	0.755	0.623	1.02	0.897	0.963	1.01	0.847	0.839	0.733	0.925	0.818	0.465
NCI-H1993	0.65	0.623	0.622	0.662	0.373	0.503	0.477	0.67	0.456	0.407	0.913	0.844	0.935	0.768	0.69	0.743	0.851	1.34	0.847	0.497
